Measured values published in patent US6313153A, “Compositions and methods for treating nephritis and inhibiting TGF -β related conditions using pyridylacrylamide derivatives” (Tsumura & Co., priority 1997, dated 2001).

Tests used:
total TGF-β1 = test: production of total TGF-β1 in glomeruli isolated from nephritic mice (ELISA); assay type: cell-based, BALB/c male mice; conditions: Mus musculus, 10^-6 M, 48 hours, supernatant acid treated, read-out: Inhibition rate (%) of production of total TGF-β1
Protocol: BALB/c male mice were adapted in a feeding chamber for 1 week before subjecting to experiments. Nephritis was induced by subcutaneously injecting an emulsion of rabbit γ-globulin and Freund's complete adjuvant on the back in a dose amount of 1.0 mg per mouse and, after 5 days (on the zeroth day), intravenously injecting rabbit anti-mouse GBM serum in a dose amount of 0.1 ml per mouse. After 1 day from the injection of anti-serum, the glomeruli were isolated through sieves with different sizes and washed twice. Each compound to be tested (10^-6 M) was added while the solvent was added to the control groups. The glomeruli were incubated in RPMI-1640 serum-free medium for 48 hours. The amount of production of active TGF-β1 was determined by measuring the supernatant itself after the incubation for 48 hours in ELSA method. Further, the supernatant was treated with hydrochloric acid and the pH was returned with sodium hydroxide. The total amount of TGF-β1 produced in the supernatant was measured in ELISA method. The protein concentration in the medium was also measured as glomeruli protein concentration. The inhibition rate was calculated by the following equation.
Inhibition rate (%)=100×(value of control group-value of sample)/(value of control group)

anti-GBM nephritic mice = test: anti-GBM nephritic mice: proteinuria, serum cholesterol, blood urea nitrogen and serum creatinine; assay type: in vivo, BALB/c mice; conditions: for Total Evaluation: 3 × (number of + in proteinuria) + (number of + in serum parameter); for Proteinuria 5th day: 5th day from intravenous injection of anti-GBM serum; for Proteinuria 5th day / Proteinuria 10th day / Serum Parameter BUN (blood urea nitrogen) / Serum Parameter S-Ch (serum cholesterol) / Serum Parameter S-Cr (serum creatinine): oral; for Proteinuria 10th day: 10th day from intravenous injection of anti-GBM serum; for Serum Parameter BUN (blood urea nitrogen) / Serum Parameter S-Ch (serum cholesterol) / Serum Parameter S-Cr (serum creatinine): 11th day;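 for Proteinuria 10th day: minus not effective plus trend double p<0.05 triple p<0.01 quadruple p<0.001 improvement vs control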;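 for Proteinuria 5th day: minus not effective plus trend double p<0.05 triple p<0.01 quadruple p<0.001 improvement vs control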;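 for Serum Parameter BUN (blood urea nitrogen): minus not effective plus trend double p<0.05 triple p<0.01 quadruple p<0.001 improvement vs control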;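 for Serum Parameter S-Ch (serum cholesterol): minus not effective plus trend double p<0.05 triple p<0.01 quadruple p<0.001 improvement vs control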
Protocol: BALB/c mice (5 weeks old, purchased from Nippon Charles Liver) were quarantined and adapted for about 1 week before subjecting to experiments. These mice were divided into several groups for the experiments so that average body weights and standard deviations were almost identical in all groups. Mouse anti-GBM (glomerular basement membrane) nephritis was caused by immunizing the mice with rabbit γ-globulin (1 mg) with Freund's complete adjuvant and intravenously injecting rabbit anti-mouse GBM serum on the fifth day from the immunization. Each compound tested was forcedly orally administered via an oral sonde almost simultaneously with the intravenous injection of the anti-GBM serum. On the 5th and 10th days from the intravenous injection, urine was taken by a plastic metabolic cage and proteinuria was measured (Ohtsuka Tonein TP2). On the 11th day, blood was taken by cutting the carotid and serum cholesterol (S--Ch), blood urea nitrogen (BUN) and serum creatinine (S--Cr) were measured by Toshiba TBA-380 autoanalyzer.

Structure (SMILES)	inhibition at 1 µM (total TGF-β1)	Total Evaluation (anti-GBM nephritic mice)	Proteinuria 5th day (anti-GBM nephritic mice)	Proteinuria 10th day (anti-GBM nephritic mice)	Serum Parameter BUN (blood urea nitrogen) (anti-GBM nephritic mice)	Serum Parameter S-Ch (serum cholesterol) (anti-GBM nephritic mice)	Serum Parameter S-Cr (serum creatinine) (anti-GBM nephritic mice)
COc1ccc(CCN(C)C(=O)/C=C/c2cccnc2)cc1O [Compound 51]	56.8%						
O=C(/C=C(/c1ccccc1)c1cccnc1)NCCc1cccc(O)c1 [Compound 93]		8	-	-	+++	++	+++
CCOC(=O)COc1ccc(CN(C)C(=O)/C=C/c2cccnc2)cc1 [Compound 95]		9	+	+	++	+	-
CCOC(=O)COc1cccc(CCNC(=O)/C=C/c2cccnc2)c1 [Compound 100]		6	-	+	+	+	+
CCOC(=O)COc1ccc(CCNC(=O)/C=C/c2cccnc2)cc1 [Compound 101]		8	-	++	-	-	++
COC(=O)COc1ccccc1CCNC(=O)/C=C/c1cccnc1 [Compound 102]		9	+	++	-	-	-
CNC(=O)COc1cccc(CCNC(=O)/C=C/c2cccnc2)c1 [Compound 114, (E)-N-[3-[(methyl-carbamoyl)methoxy]phenethyl]-3-(3-pyridyl)-2-propenoic acid amide]		24	+++	+++	++	+++	+
NC(=O)COc1cccc(CCNC(=O)/C=C/c2cccnc2)c1 [Compound 115]		10	-	+	++	++	+++
O=C(/C=C/c1cccnc1)NCCc1cccc(OCC(=O)NC2CCCC2)c1 [Compound 116]		10	+	+	++	+	+
O=C(/C=C/c1cccnc1)NCCc1cccc(OCC(=O)NO)c1 [Compound 120]	56.9%						
CCNC(=O)Oc1cccc(CCNC(=O)/C=C/c2cccnc2)c1 [Compound 127, (E)-N-[3-[(ethylcarbamoyl)oxy]-phenethyl]-3-(3-pyridyl)-2-propenoic acid amide]		17	+++	++	-	++	-
CCNC(=O)Oc1ccc(CCN(C)C(=O)/C=C/c2cccnc2)cc1OC(=O)NCC [Compound 133]		9	+	+	+	+	+
COc1ccc(CCN(C)C(=O)/C=C/c2cccnc2)cc1OC [Compound 140]		14	+	++	++	++	+
O=C(O)COc1ccc(CCNC(=O)/C=C/c2cccnc2)cc1 [Compound 149]	35.9%						
O=C(O)COc1cccc(CCNC(=S)/C=C/c2cccnc2)c1 [Compound 151]	19.1%						
COc1ccc(CCN(C)C(=O)/C=C/c2ccccn2)cc1OC [Compound 153]	31%						
COc1ccc(CCN(C)C(=O)/C=C/c2ccncc2)cc1OC [Compound 154]	53.4%						
COc1ccc(C(=O)CN(C)C(=O)/C=C/c2cccnc2)cc1OC [Compound 155, (E) -N-[2-(3,4-dimethoxyphenyl)-2-oxoethyl]-N-methyl-3-(3-pyridyl)-2-propenoicacid amide]		28	++++	++++	+	+++	-
COc1ccc(C(CN(C)C(=O)/C=C/c2cccnc2)=NO)cc1OC [Compound 156, (E)-N-[2-(3,4-dimethoxyphenyl)-2-(hydroxyimino)ethyl]-N-methyl-3-(3-pyridyl)-2-propenoic acid amide]		7	+	+	-	+	-
COc1cc(C(O)CN(C)C(=O)/C=C/c2cccnc2)ccc1O (stereo not drawn) [Compound 158, (E)-N-[2-hydroxy-2-(3-methoxy-4-hydroxyphenyl)ethyl]-N-methyl-3-(3-pyridyl)-2-propenoic acid amide]		7	+	+	-	+	-
CCOC(=O)COc1cccc(C(O)CNC(=O)/C=C/c2cccnc2)c1 (stereo not drawn) [Compound 159, ethyl [3-[1-hydroxy-2-((E) -3-(3-pyridyl)acryloylamino]ethyl]phenoxy]acetate]		10	++	+	-	+	-
O=C(/C=C/c1cccnc1)NCC(=O)c1cccc(O)c1 [Compound 160, (E)-N-(3-hydroxyphenacyl)-3-(3-pyridyl)-2-propenoic acid amide]		14	+++	+	-	++	-
CCOC(=O)COc1cccc(C(=O)CNC(=O)/C=C/c2cccnc2)c1 [Compound 161]		10	++	+	-	+	-
COc1cc(C(=O)CN(C)C(=O)/C=C/c2cccnc2)ccc1O [Compound 162, (E)-N-methyl-N-(3-methoxy-4-hydroxyphenacyl)-3-(3-pyridyl)-2-propenoic acid amide]		13	+++	+	-	+	-
COc1ccc(C(=O)CN(C)C(=S)/C=C/c2cccnc2)cc1OC [Compound 165, (E)-N-[2-(3,4-dimethoxyphenyl)-2-oxoethyl]-N-methyl-3-(3-pyridyl)-2-propenoic acid thioamide]		22	+++	+++	+	+++	-
